Source: patent US10894784B2, “Heteroarylbenzimidazole compounds” (BAYER PHARMA AKTIENGESELLSCHAFT, priority 2015, dated 2021)

Target: TBK1 (Homo sapiens (Human), UniProt Q9UHD2)
Experiment: TBK1 low ATP kinase assay (in vitro assay 1)
Format: biochemical
Conditions: in vitro assay 1, read-out: TBK1 low ATP kinase assay IC50

Sequence of TBK1 (Q9UHD2 whole entry): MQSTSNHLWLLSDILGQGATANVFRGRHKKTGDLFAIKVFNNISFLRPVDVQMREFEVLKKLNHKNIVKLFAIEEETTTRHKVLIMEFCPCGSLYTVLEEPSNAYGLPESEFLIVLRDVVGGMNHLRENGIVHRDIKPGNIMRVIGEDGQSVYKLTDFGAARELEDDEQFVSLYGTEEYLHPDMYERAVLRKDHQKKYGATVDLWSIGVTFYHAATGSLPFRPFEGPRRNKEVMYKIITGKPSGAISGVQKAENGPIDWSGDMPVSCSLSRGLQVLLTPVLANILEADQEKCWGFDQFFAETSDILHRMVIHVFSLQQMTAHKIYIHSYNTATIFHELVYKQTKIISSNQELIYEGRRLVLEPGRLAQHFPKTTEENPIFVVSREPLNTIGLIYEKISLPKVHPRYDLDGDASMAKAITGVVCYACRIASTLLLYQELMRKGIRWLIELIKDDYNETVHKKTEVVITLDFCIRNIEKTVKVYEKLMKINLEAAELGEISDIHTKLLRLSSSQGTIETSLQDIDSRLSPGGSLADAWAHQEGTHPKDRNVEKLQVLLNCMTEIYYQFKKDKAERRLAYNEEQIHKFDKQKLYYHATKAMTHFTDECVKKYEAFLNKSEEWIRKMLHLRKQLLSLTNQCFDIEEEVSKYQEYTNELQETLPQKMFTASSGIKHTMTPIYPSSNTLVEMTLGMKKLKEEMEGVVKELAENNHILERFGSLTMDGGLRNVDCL

| SMILES | IC50 [nM] |
| --- | --- |
| CC(c1ccnc(Nc2nc3ccc(-c4cc(N5CCOCC5)ncn4)cc3[nH]2)c1)N1CCN(C(=O)C2(C(F)(F)F)CC2)CC1 (single isomer, unassigned) [Example 118.04, (4-{(1R or 1S)-1-[2-({6-[6-(morpholin-4-yl)pyrimidin-4-yl]-1H-benzimidazol-2-yl}amino)pyridin-4-yl]ethyl}piperazin-1-yl)[1-(trifluoromethyl)cyclopropyl]methanone] | 2.6 |
| Cc1noc(-c2ccc3nc(Nc4cc(CN5CCN(c6ccccn6)CC5)ccn4)[nH]c3c2)n1 [Example 101.15, 6-(3-methyl-1,2,4-oxadiazol-5-yl)-N-(4-{[4-(pyridin-2-yl)piperazin-1-yl]methyl}pyridin-2-yl)-1H-benzimidazol-2-amine] | 210 |
| CC(c1ccnc(Nc2nc3ccc(-c4cc(C(F)(F)F)ncn4)c(F)c3[nH]2)c1)N1CCN(C(=O)CC(F)(F)F)CC1 (single isomer, unassigned) [Example 173.02, 3,3,3-trifluoro-1-(4-{(1R or 1S)-1-[2-({7-fluoro-6-[6-(trifluoromethyl)pyrimidin-4-yl]-1H-benzimidazol-2-yl}amino)pyridin-4-yl]ethyl}piperazin-1-yl)propan-1-one] | 77.1 |
| Cc1noc(-c2ccc3nc(Nc4cc(CN5CCN(c6ccc(C#N)cc6)CC5)ccn4)[nH]c3c2)n1 [Example 101.18, 4-{4-[(2-{[6-(3-methyl-1,2,4-oxadiazol-5-yl)-1H-benzimidazol-2-yl]amino}pyridin-4-yl)methyl]piperazin-1-yl}benzonitrile] | 1500 |
| CC(c1ccnc(Nc2nc3ccc(-c4cnn(CC5CC5)c4)cc3[nH]2)c1)N1CCN(C(=O)OC(C)(C)C)CC1 (single isomer, unassigned) [Example 39.02.01, tert-butyl 4-{(1R or 1S)-1-[2-({6-[1-(cyclopropylmethyl)-1H-pyrazol-4-yl]-1H-benzimidazol-2-yl}amino)pyridin-4-yl]ethyl}piperazine-1-carboxylate] | 8.61 |
| CC(c1ccnc(Nc2nc3ccc(-c4ccnn4C(C)C)cc3[nH]2)c1)N1CCN(C(=O)C2CC2)CC1 (single isomer, unassigned) [Example 72.03, cyclopropyl(4-{(1R or 1S)-1-[2-({6-[1-(propan-2-yl)-1H-pyrazol-5-yl]-1H-benzimidazol-2-yl}amino)pyridin-4-yl]ethyl}piperazin-1-yl)methanone] | 100 |
| CC(C)(C)OC(=O)N1CCN(Cc2ccnc(Nc3nc4ccc(-c5ccnc(C(F)F)c5)cc4[nH]3)c2)CC1 [Example 139.01, tert-butyl 4-{[2-({6-[2-(difluoromethyl)pyridin-4-yl]-1H-benzimidazol-2-yl}amino)pyridin-4-yl]methyl}piperazine-1-carboxylate] | 55 |
| CC(c1ccnc(Nc2nc3ccc(-c4cnn(CC5CC5)c4)c(Cl)c3[nH]2)c1)N1CCN(C(=O)CC(F)(F)F)CC1 (single isomer, unassigned) [Example 122.02, 1-(4-{(1R or 1S)-1-[2-({7-chloro-6-[1-(cyclopropylmethyl)-1H-pyrazol-4-yl]-1H-benzimidazol-2-yl}amino)pyridin-4-yl]ethyl}piperazin-1-yl)-3,3,3-trifluoropropan-1-one] | 1.2 |
| CCOc1nccc(-c2ccc3nc(Nc4cc(C(C)N5CCN(C(=O)CC(F)(F)F)CC5)ccn4)[nH]c3c2)n1 (single isomer, unassigned) [Example 26.03.01.B, 1-{4-[(1S or 1R)-1-(2-{[6-(2-ethoxypyrimidin-4-yl)-1H-benzimidazol-2-yl]amino}pyridin-4-yl)ethyl]piperazin-1-yl}-3,3,3-trifluoropropan-1-one] | 19.5 |
| CC(c1ccnc(Nc2nc3ccc(-c4cnn(CC5CC5)c4)c(F)c3[nH]2)c1)N1CCN(C(=O)CC(F)(F)F)CC1 (single isomer, unassigned) [Example 121.02] | 2.5 |
| O=C(CC(F)(F)F)N1CCN(Cc2ccnc(Nc3nc4ccc(-c5nc(C6CC6)no5)cc4[nH]3)c2)CC1 [Example 17.02, 1-{4-[(2-{[6-(3-cyclopropyl-1,2,4-oxadiazol-5-yl)-1H-benzimidazol-2-yl]amino}pyridin-4-yl)methyl]piperazin-1-yl}-3,3,3-trifluoropropan-1-one] | 64.9 |
| CC(c1ccnc(Nc2nc3ccc(-c4cnn(CC5CC5(C)C)c4)cc3[nH]2)c1)N1CCN(C(=O)CC(F)(F)F)CC1 (single isomer, unassigned) [Example 67.02, 1-{4-[(1R or 1S)-1-(2-{[6-(1-{[(1RS)-2,2-dimethylcyclopropyl]methyl}-1H-pyrazol-4-yl)-1H-benzimidazol-2-yl]amino}pyridin-4-yl)ethyl]piperazin-1-yl}-3,3,3-trifluoropropan-1-one] | 2.9 |
| CN(C)c1cc(-c2ccc3nc(Nc4cc(CN5CCN(C(=O)OC(C)(C)C)CC5)ccn4)[nH]c3c2)ccn1 [Example 135.01, tert-butyl 4-{[2-({6-[2-(dimethylamino)pyridin-4-yl]-1H-benzimidazol-2-yl}amino)pyridin-4-yl]methyl}piperazine-1-carboxylate] | 71 |

Now from value to compound:

| IC50 [nM] | SMILES |
| --- | --- |
| 22.4 | COc1cnccc1-c1ccc2nc(Nc3cc(CN4CCN(C(=O)C5CCC5)CC4)ccn3)[nH]c2c1 [Example 04.04, cyclobutyl{4-[(2-{[6-(3-methoxypyridin-4-yl)-1H-benzimidazol-2-yl]amino}pyridin-4-yl)methyl]piperazin-1-yl}methanone] |
| 190 | O=C(CC(F)(F)F)N1CCN(Cc2ccnc(Nc3nc4ccc(-c5c(F)cncc5Cl)cc4[nH]3)c2)CC1 [Example 132.02, 1-{4-[(2-{[6-(3-chloro-5-fluoropyridin-4-yl)-1H-benzimidazol-2-yl]amino}pyridin-4-yl)methyl]piperazin-1-yl}-3,3,3-trifluoropropan-1-one] |
| 3.3 | COCc1cc(-c2ccc3nc(Nc4cc(CN5CCN(C(=O)C6(C(F)(F)F)CC6)CC5)ccn4)[nH]c3c2)ncn1 [Example 79.03, (4-{[2-({6-[6-(methoxymethyl)pyrimidin-4-yl]-1H-benzimidazol-2-yl}amino)pyridin-4-yl]methyl}piperazin-1-yl)[1-(trifluoromethyl)cyclopropyl]methanone] |
| 5.8 | O=C(CC(F)(F)F)N1CCN(Cc2ccnc(Nc3nc4ccc(-c5ccnc(F)c5)cc4[nH]3)c2)CC1 [Example 137.02, 3,3,3-trifluoro-1-{4-[(2-{[6-(2-fluoropyridin-4-yl)-1H-benzimidazol-2-yl]amino}pyridin-4-yl)methyl]piperazin-1-yl}propan-1-one] |
| 4.18 | O=C(CC(F)(F)F)N1CCN(Cc2ccnc(Nc3nc4ccc(-c5ncnc6ccoc56)cc4[nH]3)c2)CC1 [Example 168.02, 3,3,3-trifluoro-1-{4-[(2-{[6-(furo[3,2-d]pyrimidin-4-yl)-1H-benzimidazol-2-yl]amino}pyridin-4-yl)methyl]piperazin-1-yl}propan-1-one] |
| 0.473 | CC(c1ccnc(Nc2nc3ccc(-c4cc(N5CCCC5)ncn4)cc3[nH]2)c1)N1CCN(C(=O)C2CC2(F)F)CC1 (single isomer, unassigned) [Example 117.05, ((1RS)-2,2-difluorocyclopropyl)(4-{(1R or 1S)-1-[2-({6-[6-(pyrrolidin-1-yl)pyrimidin-4-yl]-1H-benzimidazol-2-yl}amino)pyridin-4-yl]ethyl}piperazin-1-yl)methanone] |
| 220 | O=C(C1CCC1)N1CCN(Cc2ccnc(Nc3nc4ccc(-c5ccnc(C(F)(F)F)n5)cc4[nH]3)c2)CC1 [Example 27.02, cyclobutyl(4-{[2-({6-[2-(trifluoromethyl)pyrimidin-4-yl]-1H-benzimidazol-2-yl}amino)pyridin-4-yl]methyl}piperazin-1-yl)methanone] |
| 5190 | CC(=O)N1CCN(Cc2ccnc(Nc3nc4ccc(-c5ncnc(C)c5C)cc4[nH]3)c2)CC1 [Example 32.03, 1-{4-[(2-{[6-(5,6-dimethylpyrimidin-4-yl)-1H-benzimidazol-2-yl]amino}pyridin-4-yl)methyl]piperazin-1-yl}ethanone] |
| 4.1 | Nc1cc(-c2ccc3nc(Nc4cc(CN5CCN(C(=O)CC(F)(F)F)CC5)ccn4)[nH]c3c2)ccn1 [Example 138.02, 1-{4-[(2-{[6-(2-aminopyridin-4-yl)-1H-benzimidazol-2-yl]amino}pyridin-4-yl)methyl]piperazin-1-yl}-3,3,3-trifluoropropan-1-one] |
| 0.96 | O=C(C1CC1)N1CCN(Cc2ccnc(Nc3nc4ccc(-c5cc(NC6CCC6)ncn5)cc4[nH]3)c2)CC1 [Example 152.03, (4-{[2-({6-[6-(cyclobutylamino)pyrimidin-4-yl]-1H-benzimidazol-2-yl}amino)pyridin-4-yl]methyl}piperazin-1-yl)(cyclopropyl)methanone] |
| 5.35 | O=C(C1CC1)N1CCN(Cc2ccnc(Nc3nc4ccc(-c5cnn(CC6CC6)c5)cc4[nH]3)c2)CC1 [Example 39.01.03, cyclopropyl(4-{[2-({6-[1-(cyclopropylmethyl)-1H-pyrazol-4-yl]-1H-benzimidazol-2-yl}amino)pyridin-4-yl]methyl}piperazin-1-yl)methanone] |
| 28.5 | COc1cnccc1-c1ccc2nc(Nc3cc(CN4CCN(C(=O)OC(C)(C)C)CC4)ccn3)[nH]c2c1 [Example 04.01, tert-butyl 4-[(2-{[6-(3-methoxypyridin-4-yl)-1H-benzimidazol-2-yl]amino}pyridin-4-yl)methyl]piperazine-1-carboxylate] |
| 9.1 | COc1cc(-c2ccc3nc(Nc4cc(C(C)N5CCN(C(=O)C6CC6)CC5)ccn4)[nH]c3c2)ncn1 (racemic) [Example 34.02.02, (rac)-cyclopropyl{4-[1-(2-{[6-(6-methoxypyrimidin-4-yl)-1H-benzimidazol-2-yl]amino}pyridin-4-yl)ethyl]piperazin-1-yl}methanone] |
| 193 | COc1cncc(-c2ccc3nc(Nc4cc(CN5CCN(C(=O)C6CC6)CC5)ccn4)[nH]c3c2)n1 [Example 48.01, cyclopropyl{4-[(2-{[6-(6-methoxypyrazin-2-yl)-1H-benzimidazol-2-yl]amino}pyridin-4-yl)methyl]piperazin-1-yl}methanone] |
